Measurements taken from patent publication US6627621B2, “Neutrophil function inhibitors” (Dainichieseika Color & Chemicals Mfg. Co., Ltd., priority 2001, dated 2003).

Key:
Format in all cases: cell-based, Guinea pig
neutrophils [1] = experiment: Generation of active oxygen by neutrophils (cytochrome c reduction method); settings: 0.01, 0.1 and 1 mM, 37° C. 20 minutes preincubation
Description: A glycogen solution (0.17% glycogen-0.9% NaCl solution) was administered into the abdominal cavity of a Guinea pig. About 15 hours later, the abdominal cavity was washed with a 0.4% sodium citrate-0.9% NaCl solution to collect an exudate. The exudate contained neutrophils of 95% or higher purity. After the abdominal cavity exudate was washed twice with phosphate buffer (pH 7.4), the neutrophils were suspended in phosphate buffer (pH 7.4) to prepare a neutrophil suspension.
Inhibiting effects of a glucosamine salt on neutrophil functions were investigated with respect to the generation of active oxygen, ingesting effect and extra-cellular releasing effect on granular components by methods to be described subsequently herein. Data are each shown as a mean ± standard deviation S.D. of three or more samples. Further, a test was conducted using an AVOVA.
Glucosamine hydrochloride was added at 0.01 mM, 0.1 mM and 1 mM to aliquots of a neutrophil suspension (neutrophil concentration: 10^6 cells/mL), respectively, followed by incubation at 37° C. for 20 minutes. To each of the reaction mixtures, N-formyl-1-methionyl-1-leucyl-1-phenylalanine (FMLP; 10^−7 M) or opsonized zymosan (OPZ; count ratio of OPZ to neutrophils: 1:6) was added as an emigrating factor to stimulate neutrophils for 30 minutes. Generated active oxygen was measured by the cytochrome c reduction method. […]

neutrophils [2] = experiment: Ingesting ability of neutrophils (ingestion of opsonized zymosan, ingestion index); settings: 0.01, 0.1 and 1 mM, 37° C. 20 minutes preincubation; OPZ (1:6) 30 minutes; FIG. 3
Description: (§1) A glycogen solution (0.17% glycogen-0.9% NaCl solution) was administered into the abdominal cavity of a Guinea pig. About 15 hours later, the abdominal cavity was washed with a 0.4% sodium citrate-0.9% NaCl solution to collect an exudate. The exudate contained neutrophils of 95% or higher purity. After the abdominal cavity exudate was washed twice with phosphate buffer (pH 7.4), the neutrophils were suspended in phosphate buffer (pH 7.4) to prepare a neutrophil suspension. Inhibiting effects of a glucosamine salt on neutrophil functions were investigated with respect to the generation of active oxygen, ingesting effect and extra-cellular releasing effect on granular components by methods to be described subsequently herein. Data are each shown as a mean ± standard deviation S.D. of three or more samples. Further, a test was conducted using an AVOVA. Glucosamine hydrochloride was added at 0.01 mM, 0.1 mM and 1 mM to aliquots of a neutrophil suspension (neutrophil concentration: 10^7 cells/mL), respectively, followed by incubation at 37° C. for 20 minutes. To each of the reaction mixtures, opsonized zymosan (OPZ; count ratio of OPZ to neutrophils: 1:6) was added, followed by a reaction for 30 minutes. The count of the yeast ingested by neutrophils was determined under a microscope, and was expressed in terms of an ingestion index.

neutrophils [3] = experiment: Emigrating ability of neutrophils (Boyden's chamber, C5a as emigrating factor); settings: 0.01, 0.1 and 1 mM, 37° C. 20 minutes preincubation, 3 μm membrane, FIG. 5
Description: A glycogen solution (0.17% glycogen-0.9% NaCl solution) was administered into the abdominal cavity of a Guinea pig. About 15 hours later, the abdominal cavity was washed with a 0.4% sodium citrate-0.9% NaCl solution to collect an exudate. The exudate contained neutrophils of 95% or higher purity. After the abdominal cavity exudate was washed twice with phosphate buffer (pH 7.4), the neutrophils were suspended in phosphate buffer (pH 7.4) to prepare a neutrophil suspension. The emigrating ability of neutrophils was measured by using as an emigrating factor the component factor C5 a generated by reacting fresh serum with a yeast. Described specifically, glucosamine hydrochloride was added at 0.01 mM, 0.1 mM and 1 mM to aliquots of a neutrophil suspension (neutrophil concentration: 3×10^6 cells/mL), respectively, followed by incubation at 37° C. for 20 minutes. The reaction mixtures were separately placed in Boyden's chambers each of which was equipped with a nitrocellulose membrane of 3 μm in pore size, and were then incubated at 37° C. for 20 minutes. After the reaction, distances over which neutrophils had emigrated were measured under a microscope.

neutrophils [4] = experiment: Extracellular release of granular enzyme lysozyme from neutrophils; settings: 0.01, 0.1 and 1 mM, 37° C. 20 minutes preincubation; OPZ (1:6) 30 minutes; FIG. 4
Description: as §1, with “[…] The reaction mixture was centrifuged, the supernatant was collected, and then, the activity” for “To each”, “granular enzyme, lysozyme, released to the outside” for “reaction mixtures, opsonized zymosan (OPZ; count ratio”, “cells” for “OPZ to neutrophils: 1:6)”, “measured” for “added, followed”, “calorimetrically quantitating dissolution” for “a reaction for 30 minutes. The count”, “Micrococcus lysodeikticus cells.” for “the yeast ingested by neutrophils was determined under a microscope, and was expressed in terms of an ingestion index.”

Cl.N[C@H]1C(O)O[C@H](CO)[C@@H](O)[C@@H]1O (some centres unmarked) [glucosamine hydrochloride, Glucosamine hydrochloride]
formation of active oxygen by FMLP (neutrophils [1]; FMLP 10^-7 M stimulation 30 minutes, FIG. 1): inhibited in a concentration-dependent manner | formation of active oxygen by opsonized zymosan (neutrophils [1]; OPZ (1:6) stimulation 30 minutes, FIG. 2): inhibited in a concentration-dependent manner | ingestion of opsonized zymosan by neutrophils (neutrophils [2]): inhibited in a concentration-dependent manner | emigrating ability of neutrophils (neutrophils [3]): inhibited in a concentration-dependent manner | extracellular release of the granular enzyme (lysozyme) from neutrophils by opsonized zymosan (neutrophils [4]): significantly inhibited
